pIC50: −log10 of the molar value. Like-named read-outs stand apart in the source and are kept apart here.
Key:
Assay type in all cases: cell-based
[1] = target: Human Cav 2.2 channels (Homo sapiens, UniProt Q00975); assay: Fluorescent assay for CaV2.2 channels using potassium depolarization (VIPR/FLIPR); details: FLIPR data; for CAv2.2 IC50 Ratio closed/inact.: ratio closed/inactivated IC50
Method in brief: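 Fluo-4 calcium fluorescence (480/535 nm) was recorded on VIPR or FLIPR after depolarization to 70 mM final potassium. Before this, cells were preincubated 30 min at 25 °C with compound in 4–30 mM potassium, so that state-dependent block could be assessed; the cells were HEK293 coexpressing Cav2.2, α2δ, β and Kir2.3.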

[2] = target: CAv1.2 (Homo sapiens, UniProt Q13936); assay: FLIPR data, CAv1.2 channel blocking (Table 6); details: for CAv1.2 IC50 Ratio closed/inact.: ratio closed/inactivated IC50
[3] = target: T-type calcium channel (Homo sapiens, UniProt O43497); assay: T-type channel blocking, FLIPR data (Table 6); details: CAv3.1
Excerpt: (§1) Another method, high-throughput spectrophotometric assay, utilizes loading of the cell lines with a fluorescent dye sensitive to intracellular calcium concentration and subsequent examination of the effects of compounds on the ability of depolarization by potassium chloride or other means to alter intracellular calcium levels.

[4] = target: T-type calcium channel (Homo sapiens, UniProt O95180); assay: T-type channel blocking, FLIPR data (Table 6); details: for CAv3.2 IC50 Ratio closed/inact.: CAv3.2, ratio closed/inactivated IC50
Excerpt: as §1

[5] = closed state, read-out: CAv2.2 IC50 Closed
[6] = inactivated state, read-out: CAv2.2 IC50 Inact.
[7] = closed state, read-out: CAv1.2 IC50 Closed
[8] = inactivated state, read-out: CAv1.2 IC50 Inact.
[9] = CAv3.2, closed state, read-out: CAv3.2 IC50 Closed
[10] = CAv3.2, inactivated state, read-out: CAv3.2 IC50 Inact.

Sequence of Human Cav 2.2 channels (Q00975 whole entry): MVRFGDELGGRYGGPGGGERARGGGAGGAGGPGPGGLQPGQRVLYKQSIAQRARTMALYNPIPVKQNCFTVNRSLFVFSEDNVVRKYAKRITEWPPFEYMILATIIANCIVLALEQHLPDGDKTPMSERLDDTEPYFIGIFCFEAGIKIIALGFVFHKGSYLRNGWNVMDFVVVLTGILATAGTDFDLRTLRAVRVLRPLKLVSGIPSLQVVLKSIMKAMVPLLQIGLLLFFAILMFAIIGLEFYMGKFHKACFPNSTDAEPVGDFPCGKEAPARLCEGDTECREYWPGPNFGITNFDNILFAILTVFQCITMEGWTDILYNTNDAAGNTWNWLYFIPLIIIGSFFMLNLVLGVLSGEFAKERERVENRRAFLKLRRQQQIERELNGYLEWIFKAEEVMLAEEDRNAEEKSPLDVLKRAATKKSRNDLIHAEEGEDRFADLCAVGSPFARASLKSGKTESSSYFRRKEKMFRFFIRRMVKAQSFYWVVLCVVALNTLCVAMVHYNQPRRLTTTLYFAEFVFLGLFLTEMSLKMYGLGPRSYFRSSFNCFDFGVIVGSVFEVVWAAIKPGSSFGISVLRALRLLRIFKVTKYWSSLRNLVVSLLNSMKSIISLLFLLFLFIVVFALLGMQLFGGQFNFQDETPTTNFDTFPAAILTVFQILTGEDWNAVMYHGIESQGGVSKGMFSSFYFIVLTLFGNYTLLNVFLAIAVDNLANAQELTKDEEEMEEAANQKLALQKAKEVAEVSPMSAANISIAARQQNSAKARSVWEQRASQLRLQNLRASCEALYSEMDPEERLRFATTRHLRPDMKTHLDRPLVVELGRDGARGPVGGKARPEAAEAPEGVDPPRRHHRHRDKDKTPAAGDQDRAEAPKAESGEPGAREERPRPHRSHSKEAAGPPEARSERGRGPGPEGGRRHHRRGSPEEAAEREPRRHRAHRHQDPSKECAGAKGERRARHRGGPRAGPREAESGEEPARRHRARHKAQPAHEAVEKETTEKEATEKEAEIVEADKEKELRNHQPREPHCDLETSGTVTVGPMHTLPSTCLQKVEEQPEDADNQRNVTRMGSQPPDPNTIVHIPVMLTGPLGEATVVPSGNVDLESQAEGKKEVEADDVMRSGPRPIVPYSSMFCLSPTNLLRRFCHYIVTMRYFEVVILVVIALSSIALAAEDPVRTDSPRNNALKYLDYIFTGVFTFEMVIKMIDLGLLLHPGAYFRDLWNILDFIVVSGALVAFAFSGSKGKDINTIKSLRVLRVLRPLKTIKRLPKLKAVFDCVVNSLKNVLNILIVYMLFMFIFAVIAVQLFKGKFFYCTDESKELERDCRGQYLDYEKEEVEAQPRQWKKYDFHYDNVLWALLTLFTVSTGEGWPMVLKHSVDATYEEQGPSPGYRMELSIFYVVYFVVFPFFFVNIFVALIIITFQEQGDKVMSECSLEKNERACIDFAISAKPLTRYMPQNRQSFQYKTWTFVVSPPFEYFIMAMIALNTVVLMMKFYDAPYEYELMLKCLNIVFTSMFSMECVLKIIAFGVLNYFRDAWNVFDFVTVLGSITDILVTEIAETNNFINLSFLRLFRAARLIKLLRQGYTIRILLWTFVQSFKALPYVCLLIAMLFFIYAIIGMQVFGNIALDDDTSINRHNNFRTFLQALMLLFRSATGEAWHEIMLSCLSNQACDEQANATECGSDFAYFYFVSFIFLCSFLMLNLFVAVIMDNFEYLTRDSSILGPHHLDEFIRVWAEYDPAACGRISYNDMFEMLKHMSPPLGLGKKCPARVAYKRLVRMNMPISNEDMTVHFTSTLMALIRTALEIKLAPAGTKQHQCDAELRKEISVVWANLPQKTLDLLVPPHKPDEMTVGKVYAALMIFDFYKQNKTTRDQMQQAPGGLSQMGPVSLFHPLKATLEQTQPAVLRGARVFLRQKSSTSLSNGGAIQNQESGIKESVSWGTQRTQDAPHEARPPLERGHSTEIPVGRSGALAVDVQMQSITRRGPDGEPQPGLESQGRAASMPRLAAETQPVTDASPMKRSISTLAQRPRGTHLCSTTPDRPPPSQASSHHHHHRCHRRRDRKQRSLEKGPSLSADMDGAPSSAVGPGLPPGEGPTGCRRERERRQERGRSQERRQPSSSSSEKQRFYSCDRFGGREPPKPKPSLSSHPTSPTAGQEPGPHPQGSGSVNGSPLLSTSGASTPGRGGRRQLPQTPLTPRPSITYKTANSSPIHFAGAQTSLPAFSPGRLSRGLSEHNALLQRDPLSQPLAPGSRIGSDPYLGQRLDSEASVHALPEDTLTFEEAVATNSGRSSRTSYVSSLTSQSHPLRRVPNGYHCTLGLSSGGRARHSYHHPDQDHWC
Sequence of Human Cav 2.2 channels (P54289 25-1103 partner): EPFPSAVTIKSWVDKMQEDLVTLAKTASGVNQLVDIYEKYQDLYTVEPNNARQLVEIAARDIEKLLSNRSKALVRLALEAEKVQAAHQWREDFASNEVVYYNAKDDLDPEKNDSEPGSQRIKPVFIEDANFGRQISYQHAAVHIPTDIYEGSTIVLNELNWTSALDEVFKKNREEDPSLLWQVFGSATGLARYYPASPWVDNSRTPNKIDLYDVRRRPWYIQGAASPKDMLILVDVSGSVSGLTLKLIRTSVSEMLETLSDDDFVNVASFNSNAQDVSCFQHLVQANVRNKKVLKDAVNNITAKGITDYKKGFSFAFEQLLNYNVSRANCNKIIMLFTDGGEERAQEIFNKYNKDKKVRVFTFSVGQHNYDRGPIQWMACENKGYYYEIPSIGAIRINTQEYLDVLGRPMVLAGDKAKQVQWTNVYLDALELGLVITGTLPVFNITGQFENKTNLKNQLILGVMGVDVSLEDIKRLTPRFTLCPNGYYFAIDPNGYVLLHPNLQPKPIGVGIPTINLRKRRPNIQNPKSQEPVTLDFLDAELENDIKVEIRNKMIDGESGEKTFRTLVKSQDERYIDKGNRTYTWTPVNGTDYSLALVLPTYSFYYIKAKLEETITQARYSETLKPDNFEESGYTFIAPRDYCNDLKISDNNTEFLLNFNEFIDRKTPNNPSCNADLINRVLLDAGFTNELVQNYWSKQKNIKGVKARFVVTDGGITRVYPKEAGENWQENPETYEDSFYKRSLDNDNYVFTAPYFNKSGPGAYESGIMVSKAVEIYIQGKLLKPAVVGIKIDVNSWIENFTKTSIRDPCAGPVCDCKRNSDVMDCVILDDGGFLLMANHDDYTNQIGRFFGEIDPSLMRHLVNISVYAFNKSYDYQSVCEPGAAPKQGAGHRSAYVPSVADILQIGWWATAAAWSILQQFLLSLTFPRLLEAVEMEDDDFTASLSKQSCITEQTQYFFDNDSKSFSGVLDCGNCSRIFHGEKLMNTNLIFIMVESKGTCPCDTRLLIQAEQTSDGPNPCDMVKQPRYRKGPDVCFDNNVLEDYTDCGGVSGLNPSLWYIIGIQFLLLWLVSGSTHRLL
Sequence of Human Cav 2.2 channels (P54284 whole entry partner): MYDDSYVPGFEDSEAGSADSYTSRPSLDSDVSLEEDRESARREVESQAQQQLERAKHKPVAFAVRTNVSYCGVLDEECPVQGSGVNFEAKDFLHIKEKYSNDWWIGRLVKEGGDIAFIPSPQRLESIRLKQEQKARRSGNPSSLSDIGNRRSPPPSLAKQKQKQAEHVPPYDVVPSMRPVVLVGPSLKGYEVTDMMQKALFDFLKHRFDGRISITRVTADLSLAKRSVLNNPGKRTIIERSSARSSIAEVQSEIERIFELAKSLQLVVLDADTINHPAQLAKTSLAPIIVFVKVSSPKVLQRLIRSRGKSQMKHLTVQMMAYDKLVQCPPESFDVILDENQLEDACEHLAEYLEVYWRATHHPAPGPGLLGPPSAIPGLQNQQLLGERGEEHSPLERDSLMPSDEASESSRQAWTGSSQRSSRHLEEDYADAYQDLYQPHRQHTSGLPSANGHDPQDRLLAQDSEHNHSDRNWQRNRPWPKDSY

SMILES	pIC50 [1, 5]	pIC50 [1, 6]	CAv2.2 IC50 Ratio closed/inact. [1]	pIC50 [3]	pIC50 [4, 9]	pIC50 [4, 10]	CAv3.2 IC50 Ratio closed/inact. [4]	pIC50 [2, 7]	pIC50 [2, 8]	CAv1.2 IC50 Ratio closed/inact. [2]
CC(C)([C@H]1C[C@H](NS(=O)(=O)c2ccc(C(F)(F)F)cc2)C1)S(=O)(=O)c1cccc(C(F)(F)F)c1 [Compound 663]	5.04	6.06	10.6	5.70	5.53	5.82	1.9	≤ 5.00	5.53	3.4
CC(C)([C@H]1C[C@H](NS(=O)(=O)c2ccc(C(F)(F)F)cc2Cl)C1)S(=O)(=O)c1cc(F)cc(C(F)(F)F)c1 [Compound 623]	5.47	6.13	4.6	5.28	≤ 5.00	5.81	6.5	5.09	5.81	5.2
CC(C)S(=O)(=O)c1cc(C(F)(F)F)cnc1C(=O)N[C@H]1C[C@H](C(C)(C)S(=O)(=O)c2cc(F)cc(C(F)(F)F)c2)C1 [Compound 593]	5.00	6.80	62.5	≤ 5.00	≤ 5.00	4.98	1	≤ 5.00	5.10	1.3
O=S(=O)(c1cccc(OC(F)(F)F)c1)[C@H]1C[C@@H](CNc2ccnc(C(F)(F)F)n2)C1 [Compound 650]	5.00	5.73	5.3	5.14	5.64	5.57	0.8	5.04	5.45	2.6
CC(C)([C@H]1C[C@@H](Nc2ccnc(C(F)(F)F)n2)C1)S(=O)(=O)c1cccc(OC(F)(F)F)c1 [Compound 646]	5.37	5.99	4.1	5.34	5.28	5.41	1.4	5.10	5.63	3.4
CC(C)([C@H]1C[C@H](NS(=O)(=O)c2ccc(Cl)c(F)c2)C1)S(=O)(=O)c1cccc(C(F)(F)F)c1 [Compound 665]	5.14	6.10	9.1	5.56	5.52	5.58	1.1	5.05	5.38	2.1
CC(C)([C@H]1C[C@H](NS(=O)(=O)c2ccc(C(F)(F)F)cc2Cl)C1)S(=O)(=O)c1cccc(C(F)(F)F)c1 [Compound 666]	5.00	6.19	15.4	5.80	5.67	5.66	1	≤ 5.00	5.64	4.4
CC(C)([C@H]1C[C@@H](NS(=O)(=O)c2ccc(C(F)(F)F)cc2Cl)C1)S(=O)(=O)c1cc(F)cc(C(F)(F)F)c1 [Compound 622]	5.32	6.17	7	5.31	≤ 5.00	5.35	2.2	5.05	5.71	4.6
O=C(NC[C@H]1C[C@H](S(=O)(=O)c2cc(F)cc(C(F)(F)F)c2)C1)c1ccc(Cl)cn1 [Compound 702]	5.40	6.05	4.4	≤ 5.00	5.12	5.42	2	5.01	5.14	1.4
O=C(NC[C@H]1C[C@H](S(=O)(=O)c2cc(F)cc(C(F)(F)F)c2)C1)c1ccc(C(F)(F)F)cc1 [Compound 703]	5.19	6.08	7.8	5.73	5.38	5.86	3	5.09	5.32	1.7

Further lines, with some results ahead:

pIC50 [1, 5]	pIC50 [1, 6]	CAv2.2 IC50 Ratio closed/inact. [1]	pIC50 [3]	pIC50 [4, 9]	pIC50 [4, 10]	CAv3.2 IC50 Ratio closed/inact. [4]	SMILES	pIC50 [2, 7]	pIC50 [2, 8]	CAv1.2 IC50 Ratio closed/inact. [2]
5.91	6.96	11.3	5.75	6.14	6.19	1.1	CC(C)(C[C@H]1C[C@H](NC(=O)c2ccc(C(F)(F)F)cc2)C1)S(=O)(=O)c1cccc(C(F)(F)F)c1 [Compound 719]	5.56	6.12	3.6
5.47	6.89	26.1	≤ 5.00	5.06	5.64	3.8	CC(C)(C[C@H]1C[C@@H](NC(=O)c2cnc(C(F)(F)F)nc2)C1)S(=O)(=O)c1cccc(C(F)(F)F)c1 [Compound 734]	≤ 5.00	5.25	1.8
5.31	6.29	9.5	≤ 5.00	5.07	5.36	2	CC(C)(C[C@H]1C[C@H](NC(=O)c2cnc(C(F)(F)F)nc2)C1)S(=O)(=O)c1cccc(C(F)(F)F)c1 [Compound 721]	≤ 5.00	5.34	2.2
5.54	6.41	7.4	5.06	5.26	5.86	4	CC(C)(C1CC(CNC(=O)c2ccnc(C(F)(F)F)c2)C1)S(=O)(=O)c1cccc(C(F)(F)F)c1 (stereo not drawn) [Compound 620]	5.00	6.17	14.9
5.00	6.24	17.2	≤ 5.00	≤ 5.00	5.00	1	CC(C)([C@H]1C[C@H](NC(=O)c2ncc(C(F)(F)F)cc2S(C)(=O)=O)C1)S(=O)(=O)c1cccc(OC(F)(F)F)c1 [Compound 637]	–	≤ 5.00	–
6.07	7.40	21.5	5.66	5.69	6.28	4	CC(C)(C[C@H]1C[C@@H](NC(=O)c2ccc(OCC(F)(F)F)nc2)C1)S(=O)(=O)c1cccc(C(F)(F)F)c1 [Compound 737]	5.37	5.89	3.3
5.56	6.59	10.7	5.26	5.26	–	–	CC(C)([C@H]1C[C@@H](CNC(=O)c2ccnc(C(F)(F)F)n2)C1)S(=O)(=O)c1cccc(C(F)(F)F)c1 [Compound 683]	≤ 5.00	5.21	1.6
5.70	6.57	7.4	5.16	5.12	5.11	1	CC(C)([C@H]1C[C@H](NC(=O)c2ccnc(C(F)(F)F)n2)C1)S(=O)(=O)c1cccc(OC(F)(F)F)c1 [Compound 635]	≤ 5.00	5.12	1.3
5.66	6.89	16.9	≤ 5.00	5.18	5.56	2.4	CC(C)(C[C@H]1C[C@@H](NC(=O)c2ccc(C(F)(F)F)nc2)C1)S(=O)(=O)c1cccc(C(F)(F)F)c1 [Compound 736]	≤ 5.00	5.48	3
5.61	6.59	9.5	5.93	5.92	–	–	CC(C)([C@H]1C[C@@H](CNC(=O)c2ccc(OCC(F)(F)F)nc2)C1)S(=O)(=O)c1cccc(C(F)(F)F)c1 [Compound 686]	5.35	5.96	4
5.00	5.91	8.2	5.66	5.49	5.49	1	CC(C)([C@H]1C[C@@H](NS(=O)(=O)c2ccc(F)c(C(F)(F)F)c2)C1)S(=O)(=O)c1cccc(C(F)(F)F)c1 [Compound 628]	≤ 5.00	5.27	1.9
5.27	6.64	23.4	≤ 5.00	5.20	5.18	1	CC(C)(C[C@H]1C[C@@H](NC(=O)c2ccc(Cl)cc2S(C)(=O)=O)C1)S(=O)(=O)c1cccc(C(F)(F)F)c1 [Compound 731]	≤ 5.00	≤ 5.00	–
